Source: patent US20110213193A1, “Magnetic Nanodelivery of Therapeutic Agents Across the Blood Brain Barrier” (THE FLORIDA INTERNATIONAL UNIVERSITY BOARD OF TRUSTEES, priority 2008, published 2011)

Test system: HIV-1 infected PBMCs
Assay: p24 antigen production by HIV-1 infected PBMCs
Format: cell-based
Settings: identical culture conditions, various doses
Method: The efficacy of magnetic nanoparticle-AZTTP was evaluated in an in vitro model system using HIV infected peripheral blood mononuclear cells (PBMCs). […] Therefore, binding of AZTTP to magnetic nanoparticles have no effect on its biological activity.

Cc1cn([C@H]2C[C@H](N=[N+]=[N-])[C@@H](COP(=O)(O)OP(=O)(O)OP(=O)(O)O)O2)c(=O)[nH]c1=O [free AZTTP, 3′-Azido-3′-Deoxythymidine-5′-triphosphate]
anti-HIV activity of free AZTTP (positive control) and MP-AZTTP compared: similar
